# pIC50: −log10 of the molar value.
# Experiments:
# A549 = assay: Growth inhibition of human A549/ATCC cells incubated for 48 hrs by sulforhodamine B assay; type: functional, cell-based; conditions: A549, 48 h
# NCI-H460 = assay: Growth inhibition of human NCI-H460 cells incubated for 48 hrs by sulforhodamine B assay; type: functional, cell-based; conditions: NCI-H460, 48 h
# SNB-75 = assay: Growth inhibition of human SNB75 cells incubated for 48 hrs by sulforhodamine B assay; type: functional, cell-based; conditions: SNB-75, 48 h
# U-251 = assay: Growth inhibition of human U251 cells incubated for 48 hrs by sulforhodamine B assay; type: functional, cell-based; conditions: U-251, 48 h
# 786-0 [1] = assay: Growth inhibition of human 786-0 cells incubated for 48 hrs by sulforhodamine B assay; type: functional, cell-based; conditions: 786-0, 48 h
# A498 = assay: Growth inhibition of human A498 cells incubated for 48 hrs by sulforhodamine B assay; type: functional, cell-based; conditions: A498, 48 h
# RXF 393 [2] = assay: Growth inhibition of human RXF393 cells incubated for 48 hrs by sulforhodamine B assay; type: functional, cell-based; conditions: RXF 393, 48 h
# UO-31 = assay: Growth inhibition of human UO31 cells incubated for 48 hrs by sulforhodamine B assay; type: functional, cell-based; conditions: UO-31, 48 h
# NCI-H522 [3] = assay: Growth inhibition of human NCI-H522 cells assessed as cell growth at 0.01 uM incubated for 48 hrs by sulforhodamine B assay relative to control; type: functional; conditions: NCI-H522, 48 h, read-out: Activity
# COLO 205 = assay: Growth inhibition of human COLO205 cells assessed as cell growth at 0.01 uM incubated for 48 hrs by sulforhodamine B assay relative to control; type: functional; conditions: COLO 205, 48 h, read-out: Activity
# HCT-15 = assay: Growth inhibition of human HCT15 cells assessed as cell growth at 0.01 uM incubated for 48 hrs by sulforhodamine B assay relative to control; type: functional; conditions: HCT-15, 48 h, read-out: Activity
# SK-MEL-2 = assay: Growth inhibition of human SK-MEL-2 cells assessed as cell growth at 0.01 uM incubated for 48 hrs by sulforhodamine B assay relative to control; type: functional; conditions: SK-MEL-2, 48 h, read-out: Activity
# SK-OV-3 [4] = assay: Growth inhibition of human SKOV3 cells assessed as cell growth at 0.01 uM incubated for 48 hrs by sulforhodamine B assay relative to control; type: functional; conditions: SK-OV-3, 48 h, read-out: Activity
# RXF 393 [5] = assay: Growth inhibition of human RXF393 cells assessed as cell growth at 0.01 uM incubated for 48 hrs by sulforhodamine B assay relative to control; type: functional; conditions: RXF 393, 48 h, read-out: Activity
# Hs-578T [6] = assay: Growth inhibition of human Hs578T cells assessed as cell growth at 0.01 uM incubated for 48 hrs by sulforhodamine B assay relative to control; type: functional; conditions: read-out: Activity
# HL-60(TB) = assay: Growth inhibition of human HL-60(TB) cells assessed as cell growth at 0.1 uM incubated for 48 hrs by sulforhodamine B assay relative to control; type: functional; conditions: HL-60, 48 h, read-out: Activity
# NCI-H23 = assay: Growth inhibition of human NCI-H23 cells assessed as cell growth at 0.1 uM incubated for 48 hrs by sulforhodamine B assay relative to control; type: functional; conditions: NCI-H23, 48 h, read-out: Activity
# SF-539 = assay: Growth inhibition of human SF539 cells assessed as cell growth at 0.1 uM incubated for 48 hrs by sulforhodamine B assay relative to control; type: functional; conditions: SF-539, 48 h, read-out: Activity
# ACHN = assay: Growth inhibition of human ACHN cells assessed as cell growth at 0.1 uM incubated for 48 hrs by sulforhodamine B assay relative to control; type: functional; conditions: read-out: Activity
# RXF 393 [7] = assay: Growth inhibition of human RXF393 cells assessed as cell growth at 0.1 uM incubated for 48 hrs by sulforhodamine B assay relative to control; type: functional; conditions: RXF 393, 48 h, read-out: Activity
# BT-549 = assay: Growth inhibition of human BT549 cells assessed as cell growth at 0.1 uM incubated for 48 hrs by sulforhodamine B assay relative to control; type: functional; conditions: BT-549, 48 h, read-out: Activity
# SK-OV-3 [8] = assay: Growth inhibition of human SKOV3 cells assessed as cell growth at 1 uM incubated for 48 hrs by sulforhodamine B assay relative to control; type: functional; conditions: SK-OV-3, 48 h, read-out: Activity
# 786-0 [9] = assay: Growth inhibition of human 786-0 cells assessed as cell growth at 1 uM incubated for 48 hrs by sulforhodamine B assay relative to control; type: functional; conditions: 786-0, 48 h, read-out: Activity
# DU-145 = assay: Growth inhibition of human DU145 cells assessed as cell growth at 1 uM incubated for 48 hrs by sulforhodamine B assay relative to control; type: functional; conditions: DU-145, 48 h, read-out: Activity
# RPMI-8226 = assay: Growth inhibition of human RPMI8226 cells assessed as cell growth at 100 uM incubated for 48 hrs by sulforhodamine B assay relative to control; type: functional; conditions: RPMI-8226, 48 h, read-out: Activity
# NCI-H522 [10] = assay: Growth inhibition of human NCI-H522 cells assessed as cell growth at 100 uM incubated for 48 hrs by sulforhodamine B assay relative to control; type: functional; conditions: NCI-H522, 48 h, read-out: Activity
# SW-620 = assay: Growth inhibition of human SW620 cells assessed as cell growth at 100 uM incubated for 48 hrs by sulforhodamine B assay relative to control; type: functional; conditions: SW-620, 48 h, read-out: Activity
# Hs-578T [11] = assay: Growth inhibition of human Hs578T cells assessed as cell growth at 100 uM incubated for 48 hrs by sulforhodamine B assay relative to control; type: functional; conditions: read-out: Activity
# [12] = read-out: LC50 (the source's name)
# [13] = read-out: pLC50 (the source's name) (converted)
structure (smiles),measurement,setting,value
O=C(Nc1cccc(-n2cc(-c3ccncc3)c(-c3cc(O)cc(Cl)c3)n2)c1)Nc1ccc(Cl)c(C(F)(F)F)c1,pIC50,A549,5.63
same,GI50,A549; read-out: GI50,2.33 µM
same,CC50,A549; [12],> 100 µM
same,TGI,A549; read-out: TGI,92 µM
same,GI50,A549; read-out: pGI50 (converted),2.34 µM
same,CC50,A549; [13],> 100 µM
same,TGI,A549; read-out: pTGI (converted),9.12 µM
same,GI50,NCI-H460; read-out: GI50,2.59 µM
same,CC50,NCI-H460; [12],85.8 µM
same,TGI,NCI-H460; read-out: TGI,73.7 µM
same,GI50,NCI-H460; read-out: pGI50 (converted),2.57 µM
same,CC50,NCI-H460; [13],87.1 µM
same,TGI,NCI-H460; read-out: pTGI (converted),7.41 µM
same,GI50,SNB-75; read-out: GI50,1.49 µM
same,CC50,SNB-75; [12],> 100 µM
same,TGI,SNB-75; read-out: TGI,63.6 µM
same,GI50,SNB-75; read-out: pGI50 (converted),1.48 µM
same,CC50,SNB-75; [13],> 100 µM
same,TGI,SNB-75; read-out: pTGI (converted),6.31 µM
same,pIC50,U-251,5.76
same,GI50,U-251; read-out: GI50,1.72 µM
same,CC50,U-251; [12],77.5 µM
same,TGI,U-251; read-out: TGI,30 µM
same,GI50,U-251; read-out: pGI50 (converted),1.74 µM
same,CC50,U-251; [13],7.76 µM
same,TGI,U-251; read-out: pTGI (converted),3.63 µM
same,GI50,786-0 [1]; read-out: GI50,1.53 µM
same,CC50,786-0 [1]; [12],5.2 µM
same,TGI,786-0 [1]; read-out: TGI,44.5 µM
same,GI50,786-0 [1]; read-out: pGI50 (converted),1.82 µM
same,CC50,786-0 [1]; [13],89.1 µM
same,TGI,786-0 [1]; read-out: pTGI (converted),4.47 µM
same,GI50,A498; read-out: GI50,3.9 µM
same,CC50,A498; [12],44 µM
same,TGI,A498; read-out: TGI,15.5 µM
same,GI50,A498; read-out: pGI50 (converted),3.89 µM
same,CC50,A498; [13],44.7 µM
same,TGI,A498; read-out: pTGI (converted),15.5 µM
same,LC50,RXF 393 [2],12.9 µM
same,GI50,RXF 393 [2]; read-out: GI50,1.42 µM
same,TGI,RXF 393 [2]; read-out: TGI,36.6 µM
same,GI50,RXF 393 [2]; read-out: pGI50 (converted),1.41 µM
same,TGI,RXF 393 [2]; read-out: pTGI (converted),3.89 µM
same,pIC50,UO-31,5.68
same,GI50,UO-31; read-out: GI50,2.1 µM
same,CC50,UO-31; [12],34.7 µM
same,TGI,UO-31; read-out: TGI,61.4 µM
same,GI50,UO-31; read-out: pGI50 (converted),2.63 µM
same,CC50,UO-31; [13],34.7 µM
same,TGI,UO-31; read-out: pTGI (converted),6.17 µM
same,growth at 0.01 µM,NCI-H522 [3],56%
same,growth at 0.01 µM,COLO 205,102%
same,growth at 0.01 µM,HCT-15,93%
same,growth at 0.01 µM,SK-MEL-2,99%
same,growth at 0.01 µM,SK-OV-3 [4],108%
same,growth at 0.01 µM,RXF 393 [5],93%
same,growth at 0.01 µM,Hs-578T [6],95%
same,growth at 0.1 µM,HL-60(TB),89%
same,growth at 0.1 µM,NCI-H23,91%
same,growth at 0.1 µM,SF-539,95%
same,growth at 0.1 µM,ACHN,93%
same,growth at 0.1 µM,RXF 393 [7],95%
same,growth at 0.1 µM,BT-549,95%
same,growth at 1 µM,SK-OV-3 [8],107%
same,growth at 1 µM,786-0 [9],84%
same,growth at 1 µM,DU-145,96%
same,growth at 100 µM,RPMI-8226,-30%
same,growth at 100 µM,NCI-H522 [10],-95%
same,growth at 100 µM,SW-620,-58%
same,growth at 100 µM,Hs-578T [11],1%

# — ChEMBL document CHEMBL4308841, “Synthesis, in vitro antiproliferative activity, and kinase inhibitory effects of pyrazole-containing diarylureas and diarylamides” (Eur J Med Chem, 2018)
